Reference: article PMC10720658 (Frontiers in parasitology, 2023)

Target: T1, AEK1 (Trypanosoma brucei, UniProt Q582V7)
T1 construct: gene Tb03.48O8.470
Assay: TR-FRET displacement of probe SCP-2
Type: binding
Conditions: read-out: % control^a

T1 sequence (Q582V7 entry or part of it): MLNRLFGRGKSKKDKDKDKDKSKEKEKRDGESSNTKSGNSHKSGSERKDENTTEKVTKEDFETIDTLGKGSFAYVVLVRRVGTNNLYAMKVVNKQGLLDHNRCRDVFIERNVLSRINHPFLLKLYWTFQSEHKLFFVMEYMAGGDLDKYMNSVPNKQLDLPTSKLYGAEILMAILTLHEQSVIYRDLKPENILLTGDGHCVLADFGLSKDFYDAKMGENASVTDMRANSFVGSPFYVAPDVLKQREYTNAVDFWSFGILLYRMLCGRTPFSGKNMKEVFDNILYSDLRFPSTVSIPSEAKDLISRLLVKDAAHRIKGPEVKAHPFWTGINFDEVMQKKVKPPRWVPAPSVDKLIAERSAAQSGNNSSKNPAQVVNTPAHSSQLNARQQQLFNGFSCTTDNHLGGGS

Row | SMILES | probe binding remaining (% of control) at 1 µM
1 | COc1cc2c(Oc3ccc4[nH]c(C)cc4c3F)ncnc2cc1OCCCN1CCCC1 [Cediranib (AZD2171)] | 36.6%
2 | Cn1cc(-c2[nH]c3cc(NC(=O)[C@H](N)C4CCCCC4)cc4c3c2C=NNC4=O)cn1 [PF-477736] | 23.1%
3 | Cc1nc(Nc2[nH]nc3c2CN(C(=O)N[C@H](CN(C)C)c2ccccc2)C3(C)C)c2sccc2n1 [PF-3758309] | 38.2%
4 | Cc1c[nH]c2nc(Nc3ccc(N4CCN(C)CC4)c(F)c3)nc(-c3cccc(CC#N)c3)c12 [SGI-7079] | 43.7%
5 | CCS(=O)(=O)c1cccc(-c2cc(C(=O)NC3CCN(C)CC3)c(C)c3[nH]c4ncc(C)cc4c23)c1 [TAK-901] | 20.1%
